Patent US20260042772A1, “FURO PYRIMIDINE DERIVATES” (Merck Patent GmbH, priority 2022, published 2026)

test system: chloroquine sensitive (CQS) strain (NF54) of P. falciparum; test: In vitro antiplasmodial activity, Assay A (parasite lactate dehydrogenase assay); format: cell-based; details: not given
Procedure: Test samples were screened for in vitro antiplasmodial activity against a chloroquine sensitive (CQS) strain (NF54) of the malaria parasite P. falciparum. Continuous in vitro cultures of asexual erythrocyte stages of P. falciparum were maintained using a modified version of the method of Trager and Jensen (1976).1 Quantitative assessment of antiplasmodial activity in vitro was determined via the parasite lactate dehydrogenase assay using a modified method described by Makler (1993). The test samples were tested in triplicate on two separate occasions. Further dilutions were prepared in complete medium on the day of the experiment. Samples were tested as a suspension if not completely dissolved. Chloroquine and artesunate were used as the reference drugs. A full dose-response were performed starting at a concentration of 3000 nM, which is then serially diluted 2-fold in complete medium to give 10 concentrations; with the lowest concentration being approximately 6 nM. The same dilution techniques were used for all samples. References were tested at a starting concentration of 1000 ng/mL. The highest concentration of solvent to which the parasites were exposed has no measurable effect on the parasite viability (data not shown).

IC50 [nM] | SMILES
< 15 | CC(C)(O)c1cccc(-c2ncnc3cc(-c4ccc(S(C)(=N)=O)cc4)oc23)c1F (stereo not drawn) [Compound P28, (4-(4-(2-fluoro-3-(2-hydroxypropan-2-yl)phenyl)furo[3,2-d]pyrimidin-6-yl)phenyl)(imino)(methyl)-λ6-sulfanone]

same assay, conditions: Plasmodium falciparum

IC50 [nM] | SMILES
< 15 | CC(C)(O)c1cc(F)cc(-c2ncnc3cc(-c4ccc(C(=O)N5C[C@@H]6C[C@H]5CO6)cc4)oc23)c1 [Compound D175, ((1S,4S)-2-oxa-5-azabicyclo[2.2.1]heptan-5-yl)(4-(4-(3-fluoro-5-(2-hydroxypropan-2-yl)phenyl)furo[3,2-d]pyrimidin-6-yl)phenyl)methanone]
15 to 50 | CC(C)(O)c1cccc(-c2ncnc3cc(-c4ccc(S(N)(=O)=O)cc4)oc23)c1F [Compound P33, 4-(4-(2-fluoro-3-(2-hydroxypropan-2-yl)phenyl)furo[3,2-d]pyrimidin-6-yl)benzenesulfonamide]
< 15 | CC(C)(O)c1cc(-c2ncnc3cc(-c4cccc(C(=O)O)c4)oc23)ccn1 [Compound D164, 3-(4-(2-(2-hydroxypropan-2-yl)pyridin-4-yl)furo[3,2-d]pyrimidin-6-yl)benzoic acid]
< 15 | COC(=O)c1cccc(-c2cc3ncnc(-c4ccnc(C(C)(C)O)c4)c3o2)c1 [Compound D163, methyl 3-(4-(2-(2-hydroxypropan-2-yl)pyridin-4-yl)furo[3,2-d]pyrimidin-6-yl)benzoate]

Second part, the compound before the results:

SMILES | IC50 [nM]
CC(C)(O)c1cc(F)cc(-c2ncnc3cc(-c4ccc(C(=O)N5C[C@H]6C[C@@H]5CO6)cc4)oc23)c1 [Compound D173, ((1R,4R)-2-oxa-5-azabicyclo[2.2.1]heptan-5-yl)(4-(4-(3-fluoro-5-(2-hydroxypropan-2-yl)phenyl)furo[3,2-d]pyrimidin-6-yl)phenyl)methanone] | < 15
Cn1cc(-c2cc3ncnc(-c4cccc(S(=O)(=O)C5CC5)c4)c3o2)ccc1=O [Compound D22, 5-(4-(3-(cyclopropylsulfonyl)phenyl)furo[3,2-d]pyrimidin-6-yl)-1-methylpyridin-2(1H)-one] | > 50
CC(C)(O)c1cc(F)cc(-c2ncnc3cc(-c4ccc(C(=O)N5CCOCC5)cc4)oc23)c1 [Compound D165, (4-(4-(3-fluoro-5-(2-hydroxypropan-2-yl)phenyl)furo[3,2-d]pyrimidin-6-yl)phenyl)(morpholino) methanone] | < 15
CC(C)(C)OC(=O)c1ccc(-c2cc3ncnc(-c4ccnc(C(C)(C)O)c4)c3o2)cc1 [Compound D162, tert-butyl 4-(4-(2-(2-hydroxypropan-2-yl)pyridin-4-yl)furo[3,2-d]pyrimidin-6-yl)benzoate] | < 15
CC1COCC(C)N1C(=O)c1ccc(-c2cc3ncnc(-c4ccnc(C(C)(C)O)c4)c3o2)cc1 (stereo not drawn) [Compound D171, (3,5-dimethylmorpholino)(4-(4-(2-(2-hydroxypropan-2-yl)pyridin-4-yl)furo[3,2-d]pyrimidin-6-yl)phenyl)methanone] | > 50

test system: CQC sensitive strain (NF54) of P. falciparum; test: In vitro antiplasmodial activity, Assay B (as described by Vennerstrom et al. 2004); format: cell-based; details: Plasmodium falciparum; NF54, Vennerstrom et al. method
Procedure: Compounds were screened against CQC sensitive strain (NF54) of P. falciparum in vitro as described by Vennerstrom et al. (2004). A full dose-response were performed starting at a concentration of 3000 nM, which is then serially diluted 2-fold in complete medium to give 10 concentrations; with the lowest concentration being approximately 6 nM. The same dilution techniques were used for all samples. References were tested at a starting concentration of 1000 ng/mL. The highest concentration of solvent to which the parasites were exposed has no measurable effect on the parasite viability (data not shown).

IC50 [nM] | SMILES
< 15 | CC(C)(O)c1cccc(-c2ncnc3cc(-c4ccc([S@](C)(=N)=O)cc4)oc23)c1F [Compound P30, (R)-(4-(4-(2-fluoro-3-(2-hydroxypropan-2-yl)phenyl)furo[3,2-d]pyrimidin-6-yl)phenyl)(imino)(methyl)-λ6-sulfanone]
> 50 | CS(=O)(=O)c1ccc(-c2cc3ncnc(-c4cccc(C(=O)N5C[C@H]6C[C@@H]5CO6)c4)c3o2)cc1 [Compound P3, ((1R,4R)-2-oxa-5-azabicyclo[2.2.1]heptan-5-yl)(3-(6-(4-(methylsulfonyl)phenyl)furo [3,2-d]pyrimidin-4-yl)phenyl)methanone]
< 15 | CC(C)(O)c1cccc(-c2ncnc3cc(-c4ccc([S@@](C)(=N)=O)cc4)oc23)c1F [Compound P29, (S)-(4-(4-(2-fluoro-3-(2-hydroxypropan-2-yl)phenyl)furo[3,2-d]pyrimidin-6-yl)phenyl)(imino)(methyl)-λ6-sulfanone]
15 to 50 | CN(C)C(=O)c1ccc(-c2cc3ncnc(-c4ccnc(C(C)(C)O)c4)c3o2)cc1 [Compound P8, 4-(4-(2-(2-hydroxypropan-2-yl)pyridin-4-yl)furo[3,2-d]pyrimidin-6-yl)-N,N-dimethylbenzamide]
15 to 50 | CC(C)(O)c1cc(-c2ncnc3cc(-c4ccc(S(C)(=N)=O)cc4)oc23)ccn1 (stereo not drawn) [Compound P25, (4-(4-(2-(2-hydroxypropan-2-yl)pyridin-4-yl)furo[3,2-d]pyrimidin-6-yl)phenyl)(imino)(methyl)-λ6-sulfanone]
15 to 50 | CN(C)C(=O)c1ccc(-c2cc3ncnc(-c4cccc(C(C)(C)O)c4)c3o2)cc1 [Compound P9, 4-(4-(3-(2-hydroxypropan-2-yl)phenyl)furo[3,2-d]pyrimidin-6-yl)-N,N-dimethylbenzamide]
< 15 | CN1CCN(C(=O)c2ccc(-c3cc4ncnc(-c5ccnc(C(C)(C)O)c5)c4o3)cc2)CC1 [Compound P22, (4-(4-(2-(2-hydroxypropan-2-yl)pyridin-4-yl)furo[3,2-d]pyrimidin-6-yl)phenyl)(4-methylpiperazin-1-yl)methanone]
15 to 50 | CC(C)(O)c1cc(-c2ncnc3cc(-c4ccc([S@](C)(=N)=O)cc4)oc23)ccn1 [Compound P27, (R)-(4-(4-(2-(2-hydroxypropan-2-yl)pyridin-4-yl)furo[3,2-d]pyrimidin-6-yl)phenyl)(imino)(methyl)-λ6-sulfanone]
> 50 | CC(=O)c1ccc(-c2cc3ncnc(-c4cccc(S(=O)(=O)C5CC5)c4)c3o2)cn1 [Compound P2, 1-(5-(4-(3-(cyclopropylsulfonyl)phenyl)furo[3,2-d]pyrimidin-6-yl)pyridin-2-yl)ethan-1-one]
< 15 | C[C@@H]1CN(C(=O)c2ccc(-c3cc4ncnc(-c5ccnc(C(C)(C)O)c5)c4o3)cc2)C[C@@H](C)O1 [Compound P15, ((2R,6R)-2,6-dimethylmorpholino)(4-(4-(2-(2-hydroxypropan-2-yl)pyridin-4-yl)furo[3,2-d]pyrimidin-6-yl)phenyl)methanone]

The next lines start with the compound.

SMILES | IC50 [nM]
CC(C)(O)Cc1cc(-c2ncnc3cc(-c4ccc(S(C)(=O)=O)cc4)oc23)ccn1 [Compound P6, 2-methyl-1-(4-(6-(4-(methylsulfonyl)phenyl)furo [3,2-d]pyrimidin-4-yl)pyridin-2-yl)propan-2-ol] | > 50
CC(C)(O)c1cc(-c2ncnc3cc(-c4ccc(C(=O)N5CC(F)(F)C5)cc4)oc23)ccn1 [Compound P12, (3,3-difluoroazetidin-1-yl)(4-(4-(2-(2-hydroxypropan-2-yl)pyridin-4-yl)furo[3,2-d]pyrimidin-6-yl)phenyl)methanone] | 15 to 50
CC(C)(O)c1cc(-c2ncnc3cc(-c4ccc(C(=O)N5CCOCC5)cc4)oc23)cc(F)n1 [Compound P14, (4-(4-(2-fluoro-6-(2-hydroxypropan-2-yl)pyridin-4-yl)furo[3,2-d]pyrimidin-6-yl)phenyl)(morpholino) methanone] | 15 to 50
CC(C)(O)c1cc(-c2ncnc3cc(-c4ccc(C(=O)N5CCOCC5)cc4)oc23)ccn1 [Compound P11, (4-(4-(2-(2-hydroxypropan-2-yl)pyridin-4-yl)furo[3,2-d]pyrimidin-6-yl)phenyl)(morpholino) methanone] | < 15
C[C@H]1CN(C(=O)c2ccc(-c3cc4ncnc(-c5ccnc(C(C)(C)O)c5)c4o3)cc2)C[C@H](C)O1 [Compound P16, ((2S,6S)-2,6-dimethylmorpholino)(4-(4-(2-(2-hydroxypropan-2-yl)pyridin-4-yl)furo[3,2-d]pyrimidin-6-yl)phenyl)methanone] | < 15
CS(=O)(=O)c1ccc(-c2cc3ncnc(-c4cccc(C(=O)N5C[C@@H]6C[C@H]5CO6)c4F)c3o2)cc1 [Compound P5, ((1S,4S)-2-oxa-5-azabicyclo[2.2.1]heptan-5-yl)(2-fluoro-3-(6-(4-(methylsulfonyl)phenyl)furo [3,2-d]pyrimidin-4-yl)phenyl)methanone] | 15 to 50
CS(=O)(=O)c1ccc(-c2cc3ncnc(-c4cccc(C(=O)N5C[C@H]6C[C@@H]5CO6)c4F)c3o2)cc1 [Compound P4, ((1R,4R)-2-oxa-5-azabicyclo[2.2.1]heptan-5-yl)(2-fluoro-3-(6-(4-(methylsulfonyl)phenyl)furo [3,2-d]pyrimidin-4-yl)phenyl)methanone] | 15 to 50
CC(C)(O)c1cc(-c2ncnc3cc(-c4ccc(S(C)(=O)=O)cc4)oc23)ccn1 [Compound P7, 2-(4-(6-(4-(methylsulfonyl)phenyl)furo [3,2-d]pyrimidin-4-yl)pyridin-2-yl)propan-2-ol] | 15 to 50
CC(C)(O)c1cc(-c2ncnc3cc(-c4ccc(C(=O)O)cc4)oc23)ccn1 [Compound P10, 4-(4-(2-(2-hydroxypropan-2-yl)pyridin-4-yl)furo[3,2-d]pyrimidin-6-yl)benzoic acid] | 15 to 50
CC(C)(O)c1cc(-c2ncnc3cc(-c4ccc([S@@](C)(=N)=O)cc4)oc23)ccn1 [Compound P26, (S)-(4-(4-(2-(2-hydroxypropan-2-yl)pyridin-4-yl)furo[3,2-d]pyrimidin-6-yl)phenyl)(imino)(methyl)-λ6-sulfanone] | 15 to 50
